Laboratory results as given in PubChem BioAssay (NCI).
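The compound was tested at five concentrations on cells cultured in 96-well plates, with a 48-hour exposure period. The concentration for 50% growth inhibition is given as GI50. TGI: concentration producing complete growth inhibition.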

Key:
Assay in all cases: NCI tumour cell line growth inhibition, 48 h
MALME-3M melanoma = test system: MALME-3M melanoma
M14 melanoma = test system: M14 melanoma
EKVX NSCLC = test system: EKVX NSCLC
SK-MEL-2 melanoma = test system: SK-MEL-2 melanoma
HOP-92 NSCLC = test system: HOP-92 NSCLC
A498 renal = test system: A498 renal
UO-31 renal = test system: UO-31 renal
MCF7 breast = test system: MCF7 breast
SK-OV-3 ovarian = test system: SK-OV-3 ovarian
SK-MEL-5 melanoma = test system: SK-MEL-5 melanoma
SF-295 CNS = test system: SF-295 CNS
SF-539 CNS = test system: SF-539 CNS
NCI-H226 lung = test system: NCI-H226 lung
SW-620 colon = test system: SW-620 colon
T-47D breast = test system: T-47D breast
SK-MEL-28 melanoma = test system: SK-MEL-28 melanoma
NCI/ADR-RES ovarian = test system: NCI/ADR-RES ovarian
OVCAR-4 ovarian = test system: OVCAR-4 ovarian
UACC-257 melanoma = test system: UACC-257 melanoma
RPMI-8226 leukemia = test system: RPMI-8226 leukemia
UACC-62 melanoma = test system: UACC-62 melanoma
TK-10 renal = test system: TK-10 renal
OVCAR-3 ovarian = test system: OVCAR-3 ovarian
HS 578T breast = test system: HS 578T breast
HL-60(TB) leukemia = test system: HL-60(TB) leukemia
CCRF-CEM leukemia = test system: CCRF-CEM leukemia
DU-145 prostate = test system: DU-145 prostate
K-562 leukemia = test system: K-562 leukemia
MDA-MB-435 = test system: MDA-MB-435
A549 NSCLC = test system: A549 NSCLC
SN12C renal = test system: SN12C renal
PC-3 prostate = test system: PC-3 prostate
RXF 393 renal = test system: RXF 393 renal
CAKI-1 renal = test system: CAKI-1 renal
OVCAR-5 ovarian = test system: OVCAR-5 ovarian
HCT-15 colon = test system: HCT-15 colon
COLO 205 colon = test system: COLO 205 colon
HOP-62 NSCLC = test system: HOP-62 NSCLC
KM12 colon = test system: KM12 colon
U251 CNS = test system: U251 CNS
SF-268 CNS = test system: SF-268 CNS
MDA-MB-468 breast = test system: MDA-MB-468 breast
NCI-H522 lung = test system: NCI-H522 lung
SNB-19 CNS = test system: SNB-19 CNS
IGROV1 ovarian = test system: IGROV1 ovarian
HT29 colon = test system: HT29 colon
ACHN renal = test system: ACHN renal
786-0 renal = test system: 786-0 renal
HCT-116 colon = test system: HCT-116 colon
NCI-H460 lung = test system: NCI-H460 lung
OVCAR-8 ovarian = test system: OVCAR-8 ovarian
BT-549 breast = test system: BT-549 breast
HCC-2998 colon = test system: HCC-2998 colon
MDA-MB-231 breast = test system: MDA-MB-231 breast
NCI-H23 lung = test system: NCI-H23 lung
LOX IMVI melanoma = test system: LOX IMVI melanoma
MOLT-4 leukemia = test system: MOLT-4 leukemia

For `CN(C)CCn1c2ccccc2c2nc3cc4ccccc4cc3nc21`, the GI50 (MALME-3M melanoma) was 2.41 µM, the TGI (MALME-3M melanoma) was 8.72 µM and the GI50 (M14 melanoma) was 2.48 µM. It also gave a TGI (M14 melanoma) of 11.1 µM, a GI50 (EKVX NSCLC) of 3.36 µM and a TGI (EKVX NSCLC) of 16.2 µM. It also gave a GI50 (SK-MEL-2 melanoma) of 8.51 µM, a TGI (SK-MEL-2 melanoma) of 21.5 µM and a GI50 (HOP-92 NSCLC) of 0.0473 µM. The TGI (HOP-92 NSCLC) was 2.12 µM, the GI50 (A498 renal) was 14.7 µM and the TGI (A498 renal) was 32 µM. The GI50 (UO-31 renal) was 0.335 µM, the TGI (UO-31 renal) was 11.6 µM and the GI50 (MCF7 breast) was 1.29 µM. It also gave a TGI (MCF7 breast) of 13.1 µM, a GI50 (SK-OV-3 ovarian) of 3.98 µM and a TGI (SK-OV-3 ovarian) of 17.2 µM. For the same compound, the GI50 (SK-MEL-5 melanoma) was 2.88 µM, the TGI (SK-MEL-5 melanoma) was 11.9 µM and the GI50 (SF-295 CNS) was 1.8 µM. It also gave a TGI (SF-295 CNS) of 12 µM, a GI50 (SF-539 CNS) of 3.01 µM and a TGI (SF-539 CNS) of 12.8 µM. The GI50 (NCI-H226 lung) was 1.89 µM, the TGI (NCI-H226 lung) was 6.59 µM and the GI50 (SW-620 colon) was 2.08 µM. For the same compound, the TGI (SW-620 colon) was 12.9 µM, the GI50 (T-47D breast) was 3.52 µM and the TGI (T-47D breast) was 19.4 µM. For the same compound, the GI50 (SK-MEL-28 melanoma) was 5.72 µM, the TGI (SK-MEL-28 melanoma) was 18.3 µM and the GI50 (NCI/ADR-RES ovarian) was 2.62 µM. For the same compound, the TGI (NCI/ADR-RES ovarian) was 15.3 µM, the GI50 (OVCAR-4 ovarian) was 5.95 µM and the TGI (OVCAR-4 ovarian) was 22.1 µM. It also gave a GI50 (UACC-257 melanoma) of 4.37 µM, a TGI (UACC-257 melanoma) of 16.6 µM and a TGI (RPMI-8226 leukemia) of 13 µM. The GI50 (UACC-62 melanoma) was 5.13 µM, the TGI (UACC-62 melanoma) was 18.8 µM and the TGI (TK-10 renal) was 22.4 µM. For the same compound, the GI50 (OVCAR-3 ovarian) was 4.53 µM, the TGI (OVCAR-3 ovarian) was 17.2 µM and the GI50 (HS 578T breast) was 12.6 µM. The TGI (HS 578T breast) was 39 µM, the GI50 (HL-60(TB) leukemia) was 1.07 µM and the TGI (HL-60(TB) leukemia) was 2.85 µM. The GI50 (CCRF-CEM leukemia) was 6.37 µM, the TGI (CCRF-CEM leukemia) was 21.1 µM and the GI50 (DU-145 prostate) was 2.65 µM. For the same compound, the TGI (DU-145 prostate) was 13.2 µM, the GI50 (K-562 leukemia) was 1.79 µM and the TGI (K-562 leukemia) was 5.45 µM. It also gave a GI50 (MDA-MB-435) of 4.19 µM, a TGI (MDA-MB-435) of 16.7 µM and a GI50 (A549 NSCLC) of 1.02 µM. For the same compound, the TGI (A549 NSCLC) was 4.52 µM, the GI50 (SN12C renal) was 2 µM and the TGI (SN12C renal) was 15.9 µM. It also gave a GI50 (PC-3 prostate) of 2.44 µM, a TGI (PC-3 prostate) of 13.5 µM and a GI50 (RXF 393 renal) of 2.23 µM. It also gave a TGI (RXF 393 renal) of 10.2 µM, a GI50 (CAKI-1 renal) of 1.28 µM and a TGI (CAKI-1 renal) of 12.3 µM. For the same compound, the GI50 (OVCAR-5 ovarian) was 3.73 µM, the TGI (OVCAR-5 ovarian) was 16.8 µM and the GI50 (HCT-15 colon) was 1.06 µM. For the same compound, the TGI (HCT-15 colon) was 2.47 µM, the GI50 (COLO 205 colon) was 2.12 µM and the TGI (COLO 205 colon) was 10.4 µM. It also gave a TGI (HOP-62 NSCLC) of 16.4 µM, a GI50 (KM12 colon) of 2.8 µM and a TGI (KM12 colon) of 15.2 µM. For the same compound, the GI50 (U251 CNS) was 2.93 µM, the TGI (U251 CNS) was 14.1 µM and the GI50 (SF-268 CNS) was 3.8 µM. It also gave a TGI (SF-268 CNS) of 16.4 µM, a GI50 (MDA-MB-468 breast) of 1.26 µM and a TGI (MDA-MB-468 breast) of 6.36 µM. The GI50 (NCI-H522 lung) was 2.5 µM, the TGI (NCI-H522 lung) was 14.5 µM and the GI50 (SNB-19 CNS) was 5.8 µM. It also gave a TGI (SNB-19 CNS) of 18.9 µM, a GI50 (IGROV1 ovarian) of 1.63 µM and a TGI (IGROV1 ovarian) of 14.2 µM. The GI50 (HT29 colon) was 1.41 µM, the TGI (HT29 colon) was 3.8 µM and the GI50 (ACHN renal) was 1.59 µM. For the same compound, the TGI (ACHN renal) was 11.5 µM, the GI50 (786-0 renal) was 3.95 µM and the TGI (786-0 renal) was 16.5 µM. It also gave a GI50 (HCT-116 colon) of 2.08 µM, a TGI (HCT-116 colon) of 14.1 µM and a GI50 (NCI-H460 lung) of 1.17 µM. It also gave a TGI (NCI-H460 lung) of 14.5 µM, a GI50 (OVCAR-8 ovarian) of 1.47 µM and a TGI (OVCAR-8 ovarian) of 3.54 µM. For the same compound, the GI50 (BT-549 breast) was 4.92 µM, the TGI (BT-549 breast) was 18.5 µM and the GI50 (HCC-2998 colon) was 1.29 µM. For the same compound, the TGI (HCC-2998 colon) was 2.66 µM, the GI50 (MDA-MB-231 breast) was 2.51 µM and the TGI (MDA-MB-231 breast) was 15.3 µM. For the same compound, the GI50 (NCI-H23 lung) was 2.86 µM, the TGI (NCI-H23 lung) was 14.6 µM and the GI50 (LOX IMVI melanoma) was 1.16 µM. It also gave a TGI (LOX IMVI melanoma) of 2.42 µM, a GI50 (MOLT-4 leukemia) of 2.76 µM and a TGI (MOLT-4 leukemia) of 12.4 µM.
